Several values for one entry are separate records, joined by “and”; a condition that tells them apart may be missing. Equal entries are not always repeated. Where two headings read alike, the source gives them in different places.
Target: T1, avidin (AV) (Gallus gallus, UniProt P02701)
T1 construct: purchased Calbiochem (La Jolla, CA)
Assay: Stopped-flow association kinetics of dye-labeled biotin probes binding to avidin (F(t), rF(t); Arrhenius plots/global fitting)
Set-up: ln(k) / dS+ / dG+ / Eon for BFl / b of the line y = m1x+b1: unit not given here
Settings: for k(average): k (full value); for ΔG^ǂ / ΔS^ǂ: forward; for kcal/mol (from Arrhenius slope): the values are: Ea forward; for Temperature at which the rate constants of AV and SAV reacting with BcO are the same, x: crossing of the AV and SAV lines; for half-time of association, rF¯(t) / halftime of association, rF¯(t): probe 20 nM; for half-time of association, rF¯(t): AV 260 nM
Procedure: These reactions were carried out in a buffered solution of 10 mM Tris-HCl, 100 mM KCl, 2.5 mM MgCl2 and 1 mM CaCl2 at pH 8 and only AV-BcO reactions included pH 9 and 10. The concentrations, after mixing, were of 20 nM of dye-labeled B7 probe and 260 nM, 520 nM or 1040 nM of AV; and 200 nM, 300 nM, 400 nM or 800 nM of SAV at temperatures of 10, 15, 20 and 25°C. The deglycosylation of AV (for comparative association reactions) was carried out using the provided standard protocol with endoglycosidase H [47], both with and without incubation of a denaturant solution (2% SDS and 1M 2-mercaptoethanol).
The reactions were collected with the SF instrument, described previously. The fluorescence signal was collected through a 520 nm interference filter (Oriel Corp., Stratford, CT) with a detector time constant and SF dead time of 1 μs and 1 ms, respectively. The excitation light was provided by the Coherent Ar^+ ion laser (described above) at 488 nm with […] of incident power on the reaction cuvette. The laser source was followed by the photo-elastic modulator described above with the axis oriented 45^o with respect to the electric vector of the incident light and with the half-wave modulation (50 kHz) set for 488 nm excitation. The demodulation circuitry following the photomultiplier provided a DC(t) and a rectified AC(t) which were converted to digital data by a high-speed digitizer (PCI-5122) from National Instruments (Austin, TX) with 14-bit resolution and 100 MHz bandwidth, through channels 0 and 1. The data acquisition was controlled by LabVIEW (Vr 8) software at a collection rate of 6120 data points/second and stored in spreadsheets. The AC(t) and DC(t) data were baseline corrected before obtaining the signal ratio (Eq 4) as a function of time (ρt).
The constant AGain is the instrumental amplitude gain and was evaluated by solving ρ(t) using the known steady state anisotropy (rss) of the complexes which is equivalent to the r(t) at t = ∞; and H, obtained from the equivalent grating factor (G) for the filters and photo multiplier tubes in the SF. For the probes used in here G was 0.82 and H = (1-G)/(1+G) = 0.099. Knowing Again and H, the AC(t) and DC(t) signals can be solved for r(t) and F(t) (Eqs 4 and 5) and the normalized fluorescence, F¯(t) , and corrected fluorescence anisotropy, rF¯(t), were obtained when F¯(0) and rF¯(0) were scaled to 1 at t = 0.
The F¯(t) (Eq 6) is equivalent to (I||) + 2 (I⊥) and proportional to quantum yield (QYi), molar absorptivity (εi) and to the formation or disappearance of the emitting species Xi(t); and rF¯(t) including the steady state anisotropies (rss) of each fluorescent species (Eq 7).
The possible reaction models were discriminated by the squared residuals of the observed and calculated association traces of both fluorescence and anisotropy fluorescence signals, F¯(t) and rF¯(t) , respectively.

T1 sequence (P02701 25-152): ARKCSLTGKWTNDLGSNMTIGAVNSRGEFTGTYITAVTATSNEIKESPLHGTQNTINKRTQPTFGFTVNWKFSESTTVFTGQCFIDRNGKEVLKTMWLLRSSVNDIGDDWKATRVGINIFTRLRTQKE

NC(CCCCNC(=O)CCCC[C@@H]1SC[C@@H]2NC(=O)N[C@@H]21)C(=O)NCCCCCNC(=O)c1ccc(-c2c3cc(F)c(=O)cc-3oc3cc(O)c(F)cc23)c(C(=O)O)c1 (stereo partly drawn) [BcO, Oregon green 488 Biocytin]
kon (AV, pH 9, 15 (288.15 K), k (scaled)): 3.4e+06 M⁻¹ s⁻¹ | ln(k) (AV, pH 9, 20 (293.15 K)): 15.5 | k(average) (AV, pH 9, 20 (293.15 K)): 5.37E+06 | kon (AV, pH 9, 20 (293.15 K), k (scaled)): 5.4e+06 M⁻¹ s⁻¹ | ln(k) (AV, pH 9, 25 (298.15 K)): 15.9 | k(average) (AV, pH 9, 25 (298.15 K)): 7.85E+06 | kon (AV, pH 9, 25 (298.15 K), k (scaled)): 7.9e+06 M⁻¹ s⁻¹ | ΔG^ǂ (AV, pH 9): 4.7 ± 0.1 kcal/mol | ΔS^ǂ (AV, pH 9): 30.9 ± 2.5 cal/°K·mol | Ea^Forward (AV, pH 10): 14.9 ± 0.7 kcal/mol | ln(k) (AV, pH10, 10 (283.15 K)): 14.5 | k(average) (AV, pH10, 10 (283.15 K)): 1.93E+06 | kon (AV, pH10, 10 (283.15 K), k (scaled)): 1.9e+06 M⁻¹ s⁻¹ | ln(k) (AV, pH10, 15 (288.15 K)): 14.9 | k(average) (AV, pH10, 15 (288.15 K)): 2.97E+06 | kon (AV, pH10, 15 (288.15 K), k (scaled)): 3e+06 M⁻¹ s⁻¹ | ln(k) (AV, pH10, 20 (293.15 K)): 15.4 | k(average) (AV, pH10, 20 (293.15 K)): 4.75E+06 | kon (AV, pH10, 20 (293.15 K), k (scaled)): 4.7e+06 M⁻¹ s⁻¹ | ln(k) (AV, pH10, 25 (298.15 K)): 15.8 | k(average) (AV, pH10, 25 (298.15 K)): 7.23E+06 | kon (AV, pH10, 25 (298.15 K), k (scaled)): 7.2e+06 M⁻¹ s⁻¹ | ΔG^ǂ (AV, pH 10): 4.7 ± 0.3 kcal/mol | ΔS^ǂ (AV, pH 10): 34.1 ± 1.3 cal/°K·mol | slope (Arrhenius linear fit) (AV, ph8): -7283 | slope (Arrhenius linear fit) (AV, ph9): -6979.6 | kcal/mol (from Arrhenius slope) (AV, ph9): 13.9 kcal/mol | slope (Arrhenius linear fit) (AV, ph10): -7486 | kcal/mol (from Arrhenius slope) (AV, ph10): 14.9 kcal/mol | Temperature at which the rate constants of AV and SAV reacting with BcO are the same, x: 52.1 °C | Temperature at which the rate constants of AV and SAV reacting with BcO are the same, x (x=(b1-b2)/(m2-m1) inverted): 325.2 °K | kon (pH 8, AV 260 nM, 10°C, pH 8, read-out: kon AV-BcO F¯(t)): 2.4e+06 ± 100000 M⁻¹ s⁻¹ | kon (pH 8, AV 260 nM, 10°C, pH 8, read-out: kon AV-BcO r¯F(t)): 2.7e+06 ± 100000 M⁻¹ s⁻¹ | kon (pH 8, AV 260 nM, 15°C, pH 8, read-out: kon AV-BcO F¯(t)): 4.1e+06 ± 100000 M⁻¹ s⁻¹ | kon (pH 8, AV 260 nM, 15°C, pH 8, read-out: kon AV-BcO r¯F(t)): 4e+06 ± 100000 M⁻¹ s⁻¹ | kon (pH 8, AV 260 nM, 20°C, pH 8, read-out: kon AV-BcO F¯(t)): 5.7e+06 ± 100000 M⁻¹ s⁻¹ | kon (pH 8, AV 260 nM, 20°C, pH 8, read-out: kon AV-BcO r¯F(t)): 5.9e+06 ± 100000 M⁻¹ s⁻¹ | kon (pH 8, AV 260 nM, 25°C, pH 8, read-out: kon AV-BcO F¯(t)): 9.5e+06 ± 100000 M⁻¹ s⁻¹ | kon (pH 8, AV 260 nM, 25°C, pH 8, read-out: kon AV-BcO r¯F(t)): 9.5e+06 ± 100000 M⁻¹ s⁻¹ | kon (pH 8, AV 520 nM, 10°C, pH 8, read-out: kon AV-BcO F¯(t)): 2.6e+06 ± 200000 M⁻¹ s⁻¹ | kon (pH 8, AV 520 nM, 10°C, pH 8, read-out: kon AV-BcO r¯F(t)): 2.7e+06 ± 100000 M⁻¹ s⁻¹ | kon (pH 8, AV 520 nM, 15°C, pH 8, read-out: kon AV-BcO F¯(t)): 4e+06 ± 100000 M⁻¹ s⁻¹ | kon (pH 8, AV 520 nM, 15°C, pH 8, read-out: kon AV-BcO r¯F(t)): 3.8e+06 ± 100000 M⁻¹ s⁻¹ | kon (pH 8, AV 520 nM, 20°C, pH 8, read-out: kon AV-BcO F¯(t)): 5.9e+06 ± 300000 M⁻¹ s⁻¹ | kon (pH 8, AV 520 nM, 20°C, pH 8, read-out: kon AV-BcO r¯F(t)): 5.8e+06 ± 100000 M⁻¹ s⁻¹ | kon (pH 8, AV 520 nM, 25°C, pH 8, read-out: kon AV-BcO F¯(t)): 9.5e+06 ± 300000 M⁻¹ s⁻¹ | kon (pH 8, AV 520 nM, 25°C, pH 8, read-out: kon AV-BcO r¯F(t)): 9.5e+06 ± 100000 M⁻¹ s⁻¹ | kon (pH 8, AV 1040 nM, 10°C, pH 8, read-out: kon AV-BcO F¯(t)): 2.5e+06 ± 200000 M⁻¹ s⁻¹ | kon (pH 8, AV 1040 nM, 10°C, pH 8, read-out: kon AV-BcO r¯F(t)): 2.7e+06 ± 100000 M⁻¹ s⁻¹ | kon (pH 8, AV 1040 nM, 15°C, pH 8, read-out: kon AV-BcO F¯(t)): 3.9e+06 ± 200000 M⁻¹ s⁻¹ | kon (pH 8, AV 1040 nM, 15°C, pH 8, read-out: kon AV-BcO r¯F(t)): 4e+06 ± 200000 M⁻¹ s⁻¹ | kon (pH 8, AV 1040 nM, 20°C, pH 8, read-out: kon AV-BcO F¯(t)): 6e+06 ± 100000 M⁻¹ s⁻¹ | kon (pH 8, AV 1040 nM, 20°C, pH 8, read-out: kon AV-BcO r¯F(t)): 6.1e+06 ± 100000 M⁻¹ s⁻¹ | kon (pH 8, AV 1040 nM, 25°C, pH 8, read-out: kon AV-BcO F¯(t)): 9.7e+06 ± 300000 M⁻¹ s⁻¹ | kon (pH 8, AV 1040 nM, 25°C, pH 8, read-out: kon AV-BcO r¯F(t)): 9.4e+06 ± 200000 M⁻¹ s⁻¹ | kon (pH 8, AV, Arrhenius plot, 23°C and pH 8, read-out: kon): 7.8e+06 ± 4e+11 M⁻¹ s⁻¹ | kon (pH 8, AV, pH 8, 10°C, read-out: kon): 2.6e+06 ± 300000 M⁻¹ s⁻¹ | kon (pH 8, AV, pH 8, 15°C, read-out: kon): 3.9e+06 ± 300000 M⁻¹ s⁻¹ | kon (pH 8, AV, pH 8, 20°C, read-out: kon): 5.9e+06 ± 400000 M⁻¹ s⁻¹ | kon (pH 8, AV, pH 8, 25°C, read-out: kon): 9.5e+06 ± 400000 M⁻¹ s⁻¹ | kon (pH 9, AV, pH 9, 10°C, read-out: kon): 2.3e+06 ± 100000 M⁻¹ s⁻¹ | kon (pH 9, AV, pH 9, 15°C, read-out: kon): 3.4e+06 ± 100000 M⁻¹ s⁻¹ | kon (pH 9, AV, pH 9, 20°C, read-out: kon): 5.4e+06 ± 200000 M⁻¹ s⁻¹ | kon (pH 9, AV, pH 9, 25°C, calculated from an Arrhenius plot, read-out: kon): 7.9e+06 ± 300000 M⁻¹ s⁻¹ | kon (pH 10, AV, pH 10, 10°C, read-out: kon): 1.9e+06 ± 100000 M⁻¹ s⁻¹ | kon (pH 10, AV, pH 10, 15°C, read-out: kon): 3e+06 ± 100000 M⁻¹ s⁻¹ | kon (pH 10, AV, pH 10, 20°C, read-out: kon): 4.8e+06 ± 200000 M⁻¹ s⁻¹ | kon (pH 10, AV, pH 10, 25°C, calculated from an Arrhenius plot, read-out: kon): 7.2e+06 ± 300000 M⁻¹ s⁻¹ | half-time of association, rF¯(t) (pH 8, 10°C): 1024 ms | half-time of association, rF¯(t) (pH 8, 15°C): 695 ms | half-time of association, rF¯(t) (pH 8, 20°C): 452 ms and 455 ms | half-time of association, rF¯(t) (pH 8, 25°C): 280 ms | halftime of association, rF¯(t) (AV 520 nM, pH 8, 20°C): 229 ms | halftime of association, rF¯(t) (AV 1040 nM, pH 8, 20°C): 109 ms | kon (untreated AV, 15°C, read-out: kon): 3.9e+06 M⁻¹ s⁻¹
